From patent publication US5534554A, “Sucrose ester-C20 to C28 alcohol formulations” (priority 1994, dated 1996)
Where two headings read alike, the source gives them in different places.

What was measured:
[1] = test system: viruses; conditions: cited from earlier work
[2] = literature; cited from earlier work
[3] = test system: wild-type HSV-2; assay: Plaque inhibition, wild-type HSV-2 in Vero cells; type: cell-based; conditions: FIG. 7, Panel A
[4] = test system: acyclovir-resistant HSV-2; assay: Plaque inhibition, acyclovir-resistant HSV-2 in Vero cells; type: cell-based; conditions: FIG. 7, Panel B
[5] = test system: HIV-1; assay: HIV-1 replication in PHA/IL-2-stimulated human peripheral blood mononuclear cells (p24 ELISA); type: cell-based; conditions: n-docosanol/Pluronic, FIG. 13
Method: Human peripheral blood mononuclear cells were cultured in medium containing 1 μg/ml PHA plus 5 units/ml IL-2 alone or also containing 100 μg/ml PFA, […] F-68 control vehicle contained in the high dose of n-docosanol/Pluronic. After overnight incubation, the cultures were inoculated with HIV-1 at a multiplicity of infection of 1 virion/cell. After 24 hours incubation at 37° C., the cultures were washed and inoculated with fresh medium containing PHA and IL-2, but lacking inhibitor. Replication of HIV-1 was determined 4 days later by quantitation of viral antigens by a p24-specific ELISA for HIV-1.
Our initial studies on HIV were conducted in collaboration with a U.S. National Institutes of Health laboratory and one of several experiments of this type is summarized in FIG. 13. Normal human peripheral blood mononuclear cells were activated with […] PHA plus 5 units/ml of IL-2 in medium alone or in the presence of the n-docosanol, Pluronic F-68 control vehicle, or phosphonoformic acid (PFA). The next day, the cultures were inoculated with HIV-1 and examined 4 days later for evidence of viral replication by detection of the p24 viral antigen. […] The dose response of HIV-1 to n-docosanol indicates an ED 50 of about 6-9 mM.

[6] = test system: herpes; conditions: literature, animal studies; cited from earlier work
[7] = test system: herpes; conditions: literature, tissue culture; cited from earlier work

Which results are given for `CCCCCCCCCCO` [Formulation C-10]?
antiviral activity ([1]; literature): significant antiviral activity; cytotoxic and hemolytic effects [2]: exhibited cytotoxic and hemolytic effects

With `CCCCCCCCCCCCO` [Formulation C-12] as the compound, how does the antiviral activity ([1]; literature) read?
Its antiviral activity is “significant antiviral activity”.

What about the “cytotoxic and hemolytic effects” value [2] of the same compound?
The value was “exhibited cytotoxic and hemolytic effects”.

What does the source list for `Nc1nc2c(ncn2COCCO)c(=O)[nH]1` [acyclovir, reference compound]?
inhibition of plaque formation [3]: inhibit plaque formation by wild type HSV-2 equally; inhibition of acyclovir-resistant HSV-2 mutant [4]: fails to respond

With `OCc1ccccc1` [benzyl alcohol] as the compound, how does the antiviral activity ([1]; under certain circumstances, U.S. Pat. No. 4,200,655) read?
The antiviral activity was “some antiviral activity”.

Which “inhibition of HIV-1 replication” value [5] does the source give for `O=C(O)P(=O)(O)O` [phosphonoformic acid, reference compound] here?
The value was “very potent antiviral compound”.

For `CCCCCCCCCCCCCCCCCCCCCCCCCCCCCCO` [triacontanol], which anti-herpes activity [6] is on record?
The anti-herpes activity was “active as an anti-herpes agent”.

And the direct antiviral activity [7]?
Its direct antiviral activity is “lacked direct antiviral activity”.
